# In patent US7473790B2 (Pfizer Inc., priority 2003, dated 2009):
# pIC50: −log10 of the molar value.
# Molecular target: T1, HCV polymerase (Hepatitis C virus genotype 1b, UniProt P26663)
# T1 construct: 2.5 pmoles (0.15 μg) HCV polymerase protein in a final volume of 75 μL
# Test: HCV polymerase primer/template-directed transcription assay (32P-GTP incorporation, filter binding)
# Type: biochemical
# Conditions: @ 20 uM compound; given where IC50 was impractical to calculate; read-out: percent inhibition
# Summary of the method: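 IC50s come from triplicate cpm, refit with an enzyme-concentration (30 nM) correction when under 200 nM. Reactions ran 30 min at 30° C in Tris pH 7.2 with MgCl2, 1 μM GTP spiked with α-32P-GTP, biotin-dG12 primer and poly(rC)300 template, with 1% DMSO. Incorporated label was collected on DE filtermats and counted.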
# T1 sequence (P26663 2420-3010): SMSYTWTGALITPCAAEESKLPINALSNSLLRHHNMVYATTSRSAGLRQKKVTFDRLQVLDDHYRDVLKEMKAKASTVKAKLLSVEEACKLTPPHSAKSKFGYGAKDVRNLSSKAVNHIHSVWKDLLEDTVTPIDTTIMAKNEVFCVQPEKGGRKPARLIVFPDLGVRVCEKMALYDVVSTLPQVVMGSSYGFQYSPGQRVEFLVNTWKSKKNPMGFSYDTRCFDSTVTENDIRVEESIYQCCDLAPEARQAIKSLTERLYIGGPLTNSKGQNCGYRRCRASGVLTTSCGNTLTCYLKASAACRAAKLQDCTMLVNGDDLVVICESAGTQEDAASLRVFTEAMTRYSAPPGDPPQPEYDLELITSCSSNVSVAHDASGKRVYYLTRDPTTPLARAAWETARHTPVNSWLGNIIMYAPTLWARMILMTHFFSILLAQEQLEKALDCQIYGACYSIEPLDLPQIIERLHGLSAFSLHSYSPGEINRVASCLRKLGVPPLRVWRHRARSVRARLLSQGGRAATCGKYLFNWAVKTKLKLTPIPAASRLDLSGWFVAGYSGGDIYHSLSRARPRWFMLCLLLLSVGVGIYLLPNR
row,Structure (SMILES),inhibition at 20 µM [%]
1,"CC(C)Oc1ccc(CCC2(C3CCCC3)CC(O)=C(Cc3nc4ccccc4n3C)C(=O)O2)cc1Cl (centres unmarked) [B(27), 6-[2-(3-Chloro-4-isopropoxy-phenyl)-ethyl]-6-cyclopentyl-4-hydroxy-3-(1-methyl-1H-benzoimidazol-2-ylmethyl)-5,6-dihydro-pyran-2-one]",47

# Same assay, conditions: recombinant HCV polymerase; 30 minutes at 30° C.; concentration giving 50% inhibition of polymerase-directed transcription; read-out: IC50
row,Structure (SMILES),pIC50
1,"COc1ccc(CCC2(C3CCCC3)CC(O)=C(Cc3cccc(C#N)c3)C(=O)O2)cc1Cl (centres unmarked) [B(23), 3-{6-[2-(3-Chloro-4-methoxy-phenyl)-ethyl]-6-cyclopentyl-4-hydroxy-2-oxo-5,6-dihydro-2-pyran-3-ylmethyl}-benzonitrile]",6.06
2,"COc1ccc(CCC2(C3CCCC3)CC(O)=C(Cc3ccc(-n4cccn4)cc3)C(=O)O2)cc1Cl (centres unmarked) [B(24), 6-[2-(3-Chloro-4-methoxy-phenyl)-ethyl]-6-cyclopentyl-4-hydroxy-3-(4-pyrazol-1-yl-benzyl)-5,6-dihydro-pyran-2-one]",6.85
3,"COc1ccc(CCC2(C3CCCC3)CC(O)=C(Cc3ccc(-n4cncn4)cc3)C(=O)O2)cc1Cl (centres unmarked) [B(25), 6-[2-(3-Chloro-4-methoxy-phenyl)-ethyl]-6-cyclopentyl-4-hydroxy-3-(4-[1,2,4]triazol-1-yl-benzyl)-5,6-dihydro-pyran-2-one]",6.62
4,"Cn1c(CC2=C(O)CC(CCc3ccc(OCC4CC4)c(Cl)c3)(C3CCCC3)OC2=O)nc2ccccc21 (centres unmarked) [B(26), 6-[2-(3-Chloro-4-cyclopropylmethoxy-phenyl)-ethyl]-6-cyclopentyl-4-hydroxy-3-(1-methyl-1H-benzoimidazol-2-ylmethyl)-5,6-dihydro-pyran-2-one]",5.64
5,"Cc1cc(C)n2nc(CC3=C(O)CC(CCc4ccc(OCC5CC5)c(Cl)c4)(C4CCCC4)OC3=O)nc2n1 (centres unmarked) [B(28), 6-[2-(3-Chloro-4-cyclopropylmethoxy-phenyl)-ethyl]-6-cyclopentyl-3-(5,7-dimethyl-[1,2,4]triazolo[1,5-a]pyrimidin-2-ylmethyl)-4-hydroxy-5,6-dihydro-pyran-2-one]",7.96
6,"COc1ccc(CCC2(C3CCCC3)CC(O)=C(Cc3nn(C)cc3Cl)C(=O)O2)cc1Cl (centres unmarked) [B(29), 6-[2-(3-Chloro-4-methoxy-phenyl)-ethyl]-3-(4-chloro-1-methyl-1H-pyrazol-3-ylmethyl)-6-cyclopentyl-4-hydroxy-5,6-dihydro-pyran-2-one]",6.66
7,"COc1ccc(CCC2(C3CCCC3)CC(O)=C(Cc3ncc[nH]3)C(=O)O2)cc1Cl (centres unmarked) [B(30), 6-[2-(3-Chloro-4-methoxy-phenyl)-ethyl]-6-cyclopentyl-4-hydroxy-3-(1H-imidazol-2-ylmethyl)-5,6-dihydro-pyran-2-one]",5.70
8,"Cc1cc(C)n2nc(CC3=C(O)CC(CCc4ccc(OC(C)C)c(Cl)c4)(C4CCCC4)OC3=O)nc2n1 (centres unmarked) [B(31), 6-[2-(3-Chloro-4-isopropoxy-phenyl)-ethyl]-6-cyclopentyl-3-(5,7-dimethyl-[1,2,4]triazolo[1,5-a]pyrimidin-2-ylmethyl)-4-hydroxy-5,6-dihydro-pyran-2-one]",8.52
9,"COc1cc(OC)c(CCC2(C3CCCC3)CC(O)=C(Cc3nn(C)cc3Cl)C(=O)O2)cc1Cl (centres unmarked) [B(32), 6-[2-(5-Chloro-2,4-dimethoxy-phenyl)-ethyl]-3-(4-chloro-1-methyl-1H-pyrazol-3-ylmethyl)-6-cyclopentyl-4-hydroxy-5,6-dihydro-pyran-2-one]",7.15
10,"Cc1cc(C)n2nc(CC3=C(O)CC(CCc4ccc(OCC5CC5)c(F)c4)(C4CCCC4)OC3=O)nc2n1 (centres unmarked) [B(33), 6-Cyclopentyl-6-[2-(4-cyclopropylmethoxy-3-fluoro-phenyl)-ethyl]-3-(5,7-dimethyl-[1,2,4]triazolo[1,5-a]pyrimidin-2-ylmethyl)-4-hydroxy-5,6-dihydro-pyran-2-one]",6.87
11,Cc1cc(C)n2nc(CC3=C(O)CC(CCc4ccc(OC(C)C)cc4)(C4CCCC4)OC3=O)nc2n1 (centres unmarked) [B(34)],7.52
12,"COc1cc(OC)c(CCC2(C3CCCC3)CC(O)=C(Cc3c[nH]c(C)n3)C(=O)O2)cc1Cl (centres unmarked) [B(35), 6-[2-(5-Chloro-2,4-dimethoxy-phenyl)-ethyl]-6-cyclopentyl-4-hydroxy-3-(2-methyl-1H-imidazol-4-ylmethyl)-5,6-dihydro-pyran-2-one]",7.15
13,"Cc1cc(C)n2nc(CC3=C(O)CC(CCc4ccc5c(c4)OCCO5)(C4CCCC4)OC3=O)nc2n1 (centres unmarked) [B(36), 6-Cyclopentyl-6-[2-(2,3-dihydro-benzo[1,4]dioxin-6-yl)-ethyl]-3-(5,7-dimethyl-[1,2,4]triazolo[1,5-a]pyrimidin-2-ylmethyl)-4-hydroxy-5,6-dihydro-pyran-2-one]",7.38
14,"CCOc1c(Cl)cc(CCC2(C3CCCC3)CC(O)=C(Cc3nc4nc(C)cc(C)n4n3)C(=O)O2)cc1Cl (centres unmarked) [B(37), 6-Cyclopentyl-6-[2-(3,5-dichloro-4-ethoxy-phenyl)-ethyl]-3-(5,7-dimethyl-[1,2,4]triazolo[1,5-a]pyrimidin-2-ylmethyl)-4-hydroxy-5,6-dihydro-pyran-2-one]",8.10
15,"Cc1cc(C)n2nc(CC3=C(O)CC(CCc4ccc(Cl)c(Cl)c4)(C4CCCC4)OC3=O)nc2n1 (centres unmarked) [B(38), 6-Cyclopentyl-6-[2-(3,4-dichloro-phenyl)-ethyl]-3-(5,7-dimethyl-[1,2,4]triazolo[1,5-a]pyrimidin-2-ylmethyl)-4-hydroxy-5,6-dihydro-pyran-2-one]",7.68
16,"Cc1cc(C)n2nc(CC3=C(O)CC(CCCCC4CCCCC4)(C4CCCC4)OC3=O)nc2n1 (centres unmarked) [B(39), 6-(4-Cyclohexyl-butyl)-6-cyclopentyl-3-(5,7-dimethyl-[1,2,4]triazolo[1,5-a]pyrimidin-2-ylmethyl)-4-hydroxy-5,6-dihydro-pyran-2-one]",7.54
17,"Cc1cc(C)n2nc(CC3=C(O)CC(CCc4ccc5c(c4)OC(F)(F)C(F)(F)O5)(C4CCCC4)OC3=O)nc2n1 (centres unmarked) [B(40), 6-Cyclopentyl-3-(5,7-dimethyl-[1,2,4]triazolo[1,5-a]pyrimidin-2-ylmethyl)-4-hydroxy-6-[2-(2,2,3,3-tetrafluoro-2,3-dihydro-benzo[1,4]dioxin-6-yl)-ethyl]-5,6-dihydro-pyran-2-one]",7.85
18,"CCCOc1ccc(CCC2(C3CCCC3)CC(O)=C(Cc3nc4nc(C)cc(C)n4n3)C(=O)O2)cc1 (centres unmarked) [B(41), 6-Cyclopentyl-3-(5,7-dimethyl-[1,2,4]triazolo[1,5-a]pyrimidin-2-ylmethyl)-4-hydroxy-6-[2-(4-propoxy-phenyl)-ethyl]-5,6-dihydro-pyran-2-one]",6.92
19,"Cc1cc(C)n2nc(CC3=C(O)CC(CCc4ccc(OCc5c(C)noc5C)cc4)(C4CCCC4)OC3=O)nc2n1 (centres unmarked) [B(42), 6-Cyclopentyl-6-{2-[4-(3,5-dimethyl-isoxazol-4-ylmethoxy)-phenyl]-ethyl}-3-(5,7-dimethyl-[1,2,4]triazolo[1,5-a]pyrimidin-2-ylmethyl)-4-hydroxy-5,6-dihydro-pyran-2-one]",6.68
20,"COc1ccc(CCC2(C3CCCC3)CC(O)=C(Cc3nc4cc(Cl)ccc4n3C)C(=O)O2)cc1Cl (centres unmarked) [B(43), 6-[2-(3-chloro-4-methoxyphenyl)ethyl]-3-[(5-chloro-1-methyl-1H-benzimidazol-2-yl)methyl]-6-cyclopentyl-4-hydroxy-5,6-dihydro-2H-pyran-2-one]",6.44
21,"Cc1cc(C)n2nc(CC3=C(O)CC(CCc4ccc(C(C)C)c(Cl)c4)(C4CCCC4)OC3=O)nc2n1 (centres unmarked) [B(44), 6-[2-(3-chloro-4-isopropylphenyl)ethyl]-6-cyclopentyl-3-[(5,7-dimethyl[1,2,4]triazolo[1,5-a]pyrimidin-2-yl)methyl]-4-hydroxy-5,6-dihydro-2H-pyran-2-one]",7.28
22,"Cc1cc(C)n2nc(CC3=C(O)CC(CCc4ccc(C(C)C)c(F)c4)(C4CCCC4)OC3=O)nc2n1 (centres unmarked) [B(45), 6-cyclopentyl-3-[(5,7-dimethyl[1,2,4]triazolo[1,5-a]pyrimidin-2-yl)methyl]-6-[2-(3-fluoro-4-isopropylphenyl)ethyl]-4-hydroxy-5,6-dihydro-2H-pyran-2-one]",7.28
23,"CCc1cc(CCC2(C3CCCC3)CC(=O)C(Cc3nc4nc(C)cc(C)n4n3)C(=O)O2)ccc1F (centres unmarked) [B(46), 6-cyclopentyl-3-[(5,7-dimethyl[1,2,4]triazolo[1,5-a]pyrimidin-2-yl)methyl]-6-[2-(3-ethyl-4-fluorophenyl)ethyl]dihydro-2H-pyran-2,4(3H)-dione]",7.70
24,"COc1ccc(CCC2(C3CCCC3)CC(=O)C(Cc3nccs3)C(=O)O2)cc1Cl (centres unmarked) [B(47), 6-[2-(3-chloro-4-methoxyphenyl)ethyl]-6-cyclopentyl-3-(1,3-thiazol-2-ylmethyl)dihydro-2H-pyran-2,4(3H)-dione]",6.10
25,"COc1ccc(CCC2(C3CCCC3)CC(=O)C(Cc3nccn3C)C(=O)O2)cc1Cl (centres unmarked) [B(48), 6-[2-(3-chloro-4-methoxyphenyl)ethyl]-6-cyclopentyl-3-[(1-methyl-1H-imidazol-2-yl)methyl]dihydro-2H-pyran-2,4(3H)-dione]",6.15
26,"Cc1cc(C)n2nc(CC3C(=O)CC(CCc4cccc(C(C)C)c4)(C4CCCC4)OC3=O)nc2n1 (centres unmarked) [B(49), 6-cyclopentyl-3-[(5,7-dimethyl[1,2,4]triazolo[1,5-a]pyrimidin-2-yl)methyl]-6-[2-(3-isopropylphenyl)ethyl]dihydro-2H-pyran-2,4(3H)-dione]",8.00
27,"Cc1cc(C)n2nc(CC3C(=O)CC(CCc4ccc(C(C)C)cc4)(C4CCCC4)OC3=O)nc2n1 (centres unmarked) [B(50), 6-cyclopentyl-3-[(5,7-dimethyl[1,2,4]triazolo[1,5-a]pyrimidin-2-yl)methyl]-6-[2-(4-isopropylphenyl)ethyl]dihydro-2H-pyran-2,4(3H)-dione]",7.05
28,"Cc1cc(C)n2nc(CC3C(=O)CC(CCc4cccc(Cl)c4)(C4CCCC4)OC3=O)nc2n1 (centres unmarked) [B(51), 6-[2-(3-chlorophenyl)ethyl]-6-cyclopentyl-3-[(5,7-dimethyl[1,2,4]triazolo[1,5-a]pyrimidin-2-yl)methyl]dihydro-2H-pyran-2,4(3H)-dione]",7.14
